Measurements as given in article PMC10950972, “Relative bioavailability of fedratinib through various alternative oral administration methods in healthy adults” (Cancer Chemotherapy and Pharmacology, 2023).
Read-outs that look alike come from different tables or passages of the source. Marks after values point to notes of the source that are not given here.

How the values were obtained:
healthy adults = test: Safety assessment (adverse events) in the phase 1 study; assay type: in vivo, human
Procedure: Participants were monitored for adverse events (AEs) during the study, including assessments for clinical symptoms, biochemical, hematologic, and urinalysis laboratory results, physical examinations, 12-lead electrocardiograms, and vital signs. AEs were assessed for seriousness, severity, and relationship to the drug. AEs were assigned to the last study treatment administered at the time of onset, starting during or after the administration of the first dose. AEs that occurred after discharge were assigned to the last study treatment received for up to 30 days after the last dose of fedratinib.

[1] = Phase 1 relative bioavailability study part 2: plasma pharmacokinetics of fedratinib (3-period crossover); assay type: in vivo, human; conditions: for Cmax / Tmax / AUC(0-t) / AUC(0-inf) / half-life: human, plasma; for half-life: read-out: t½, mean (SD) (converted)
Procedure: Study part 2 was a 3-period, 6-sequence, open-label, crossover design (Fig. 1B). Treatment 2A (reference) consisted of fedratinib 400 mg (4 × 100-mg capsules) administered orally alongside a nutritional supplement. Treatment 2B (test) consisted of fedratinib 400 mg dispersed in the nutritional supplement (180 mL, Ensure Plus), administered via nasogastric tube, and flushed with 60 mL of sterile water. Treatment 2C (test) consisted of fedratinib 400 mg as a divided dose (2 × 100-mg capsules BID) administered alongside the nutritional supplement. Participants were randomized to receive treatment in one of the following sequences: 2A–2B–2C, 2A–2C–2B, 2B–2A–2C, 2B–2C–2A, 2C–2A–2B, or 2C–2B–2A. […] In the case of an evening (second) dose in the divided dosing plan of treatment 2C, participants were directed to pre-fast at least 2 h before fedratinib dose, and 4 h after fedratinib dose, with water restricted from approximately 2 h before and 1 h after dosing, excluding water given with the treatment.
Approximately 1 h before each fedratinib administration, ondansetron oral tablet (film coated) 8 mg was given orally to reduce the potential for fedratinib-related nausea and vomiting. There was a washout period of at least 12 days between each dose of fedratinib. The duration from screening through the follow-up phone call was approximately 10 weeks. Participants resided at the clinical site from days -1 to 23 (study part 1), or days -1 to 35 (study part 2). If a participant discontinued from the study for any reason, an early termination visit was performed, with only the safety assessments scheduled for the day of discharge taking place. Additionally, each participant who discontinued also received a follow-up phone call 4 (± 2) days after completion of the early termination visit.
For study part 1, and part 2 treatments 2A and 2B, blood samples were collected pre-dose (0 h) and at 0.5, 1, 1.5, 2, 3, 4, 6, 8, 12, 24, 48, 72, 120, 168, 192, and 240 h post-dose. For treatment 2C, blood samples were collected pre-dose (0 h) and at 0.5, 1, 1.5, 2, 3, 4, 6, 8, 12, 12.5, 13, 13.5, 14, 15, 16, 18, 24, 48, 72, 120, 168, 192, and 240 h post-dose of the first dose. The plasma concentration of fedratinib was measured using a validated liquid chromatography-tandem mass spectrometry assay with a lower limit of quantification of 1.00 ng/mL [12, 20].
Plasma PK parameters were calculated using noncompartmental methods by a validated PK analysis program (Phoenix® WinNonlin®, v8.3.4 [Certara USA, Inc., Princeton, NJ, USA]) using actual times. The PK parameters determined for fedratinib Cmax, Tmax, AUC from time 0 to the time of the last quantifiable concentration (AUC0–t), AUC from time 0 to infinity (AUC0–∞), and t½. Additionally for treatment 2C, Cmax and Tmax were estimated after both the first dose (Cmax and Tmax) and the second dose (Cmax2 and Tmax2). AUC0–t and AUC0–∞ were estimated from time 0 (the first dose) through 240 h after the first dose. AUC parameters were calculated using the linear-log trapezoidal method.
The sample size for this study was based on consideration of the precision in the comparison of PK parameters, represented by the 90% confidence interval (CI) of the geometric mean ratios of Cmax and AUC of fedratinib. […] Only participants with valid PK data were included in the summary statistics and statistical analysis.
To compare the PK parameters and estimated relative bioavailability of fedratinib following different administration methods in each study part (treatment 1B to 1A, and treatment 2B and 2C to 2A), a linear mixed-effect model with treatment, period, and sequence as fixed effects and participant nested within sequence as a random effect was fitted to the natural log-transformed PK parameters (Cmax, AUC0–t, and AUC0–∞) for use in estimation of effects and construction of CIs. […]

[2] = system: patients with myelofibrosis; conditions: cited from earlier work
[3] = Treatment 2B vs 2A (nasogastric tube vs intact capsules), linear mixed-effect model
[4] = Treatment 2C: 400 mg oral divided dose (2 × 100-mg capsules BID) with nutritional supplement, after second dose, n = 30

SMILES: Cc1cnc(Nc2ccc(OCCN3CCCC3)cc2)nc1Nc1cccc(S(=O)(=O)NC(C)(C)C)c1 [fedratinib]
- Deaths or serious/severe AEs (healthy adults; during the study, all treatments): no deaths or serious/severe AEs were reported
- AE constipation, participants (healthy adults; human, in vivo): 12.1%
- AE diarrhea, participants (healthy adults; human, in vivo): 10.3%
- AE somnolence, participants (healthy adults; human, in vivo): 10.3%
- Moderate AEs reported (number of AEs) (healthy adults; human, in vivo): 4
- Participants discontinued due to AEs (healthy adults; human, in vivo): 3 participants
- Participants with at least 1 AE (healthy adults; human, in vivo): 65.5%
- AUC0–∞ geometric mean ratio (90% CI) [1, 3]: 0.863 (0.816–0.912)
- Cmax geometric mean ratio (90% CI) [1, 3]: 0.898 (0.837–0.963)
- AUC0–∞ geometric mean ratio (90% CI) ([1]; Treatment 2C vs 2A (divided dose vs intact capsules QD), linear mixed-effect model): 0.850 (0.804–0.899)
- Cmax2, geometric mean (Geo. %CV) [1, 4]: 487.3^b (44.0) ng/mL
- Tmax2, median (range) [1, 4]: 3.9^b (1.0–6.0) h
- Cmax ([1]; oral, 400 mg, Treatment 2C: 400 mg divided dose (2 × 100-mg capsules BID), after first dose, n = 30, read-out: Cmax, geometric mean (statistical analysis)): 641 ng/mL
- Tmax ([1]; oral, 400 mg, Treatment 2C: 400 mg divided dose (2 × 100-mg capsules BID), after first dose, n = 30, read-out: Tmax, median (statistical analysis)): 2.26 h
- AUC(0-t) ([1]; oral, 400 mg, Treatment 2C: 400 mg divided dose (2 × 100-mg capsules BID), n = 30, read-out: AUC0–t, geometric mean (statistical analysis)): 18900 ng·h/mL
- AUC(0-inf) ([1]; oral, 400 mg, Treatment 2C: 400 mg divided dose (2 × 100-mg capsules BID), n = 30, read-out: AUC0–∞, geometric mean (statistical analysis)): 21300 ng·h/mL
- AUC(0-t) ([1]; other: nasogastric tube, 400 mg, Treatment 2B: single 400 mg via nasogastric tube, capsule contents dispersed in nutritional supplement, n = 30, read-out: AUC0–t, geometric mean (Geo. %CV)): 19200 ng·h/mL
- AUC(0-inf) ([1]; other: nasogastric tube, 400 mg, Treatment 2B: single 400 mg via nasogastric tube, capsule contents dispersed in nutritional supplement, n = 30, read-out: AUC0–∞, geometric mean (Geo. %CV)): 21600 ng·h/mL
- Cmax ([1]; other: nasogastric tube, 400 mg, Treatment 2B: single 400 mg via nasogastric tube, capsule contents dispersed in nutritional supplement, n = 30, read-out: Cmax, geometric mean (Geo. %CV)): 1250 ng/mL
- Tmax ([1]; other: nasogastric tube, 400 mg, Treatment 2B: single 400 mg via nasogastric tube, capsule contents dispersed in nutritional supplement, n = 30, read-out: Tmax, median (range)): 1.9 h
- half-life ([1]; other: nasogastric tube, 400 mg, Treatment 2B: single 400 mg via nasogastric tube, capsule contents dispersed in nutritional supplement, n = 30): 4.42 days
- AUC(0-t) ([1]; other: nasogastric tube, 400 mg, Treatment 2B: single 400 mg via nasogastric tube, dispersed in nutritional supplement, n = 30, read-out: AUC0–t, geometric mean (statistical analysis)): 19200 ng·h/mL
- AUC(0-inf) ([1]; other: nasogastric tube, 400 mg, Treatment 2B: single 400 mg via nasogastric tube, dispersed in nutritional supplement, n = 30, read-out: AUC0–∞, geometric mean (statistical analysis)): 21600 ng·h/mL
- Cmax ([1]; other: nasogastric tube, 400 mg, Treatment 2B: single 400 mg via nasogastric tube, dispersed in nutritional supplement, n = 30, read-out: Cmax, geometric mean (statistical analysis)): 1250 ng/mL
- Tmax ([1]; other: nasogastric tube, 400 mg, Treatment 2B: single 400 mg via nasogastric tube, dispersed in nutritional supplement, n = 30, read-out: Tmax, median (statistical analysis)): 1.87 h
- AUC(0-t) ([1]; po, 400 mg, Treatment 2A: single 400 mg oral, 4 × 100-mg intact capsules with nutritional supplement, n = 30, read-out: AUC0–t, geometric mean (Geo. %CV)): 22600 ng·h/mL
- AUC(0-inf) ([1]; po, 400 mg, Treatment 2A: single 400 mg oral, 4 × 100-mg intact capsules with nutritional supplement, n = 30, read-out: AUC0–∞, geometric mean (Geo. %CV)): 25000 ng·h/mL
- Cmax ([1]; po, 400 mg, Treatment 2A: single 400 mg oral, 4 × 100-mg intact capsules with nutritional supplement, n = 30, read-out: Cmax, geometric mean (Geo. %CV)): 1390 ng/mL
- Tmax ([1]; po, 400 mg, Treatment 2A: single 400 mg oral, 4 × 100-mg intact capsules with nutritional supplement, n = 30, read-out: Tmax, median (range)): 2.9 h
- half-life ([1]; po, 400 mg, Treatment 2A: single 400 mg oral, 4 × 100-mg intact capsules with nutritional supplement, n = 30): 4.03 days
- AUC(0-t) ([1]; po, 400 mg, Treatment 2A: single 400 mg oral, intact capsules with nutritional supplement, n = 30, read-out: AUC0–t, geometric mean (statistical analysis)): 22600 ng·h/mL
- AUC(0-inf) ([1]; po, 400 mg, Treatment 2A: single 400 mg oral, intact capsules with nutritional supplement, n = 30, read-out: AUC0–∞, geometric mean (statistical analysis)): 25000 ng·h/mL
- Cmax ([1]; po, 400 mg, Treatment 2A: single 400 mg oral, intact capsules with nutritional supplement, n = 30, read-out: Cmax, geometric mean (statistical analysis)): 1390 ng/mL
- Tmax ([1]; po, 400 mg, Treatment 2A: single 400 mg oral, intact capsules with nutritional supplement, n = 30, read-out: Tmax, median (statistical analysis)): 2.67 h
- Cmax ([1]; po, 400 mg, Treatment 2C: 400 mg oral divided dose (2 × 100-mg capsules BID) with nutritional supplement, after the first dose, n = 30, read-out: Cmax, geometric mean (Geo. %CV)): 641 ng/mL
- Tmax ([1]; po, 400 mg, Treatment 2C: 400 mg oral divided dose (2 × 100-mg capsules BID) with nutritional supplement, after the first dose, n = 30, read-out: Tmax, median (range)): 1.9 h
- half-life ([1]; po, 400 mg, Treatment 2C: 400 mg oral divided dose (2 × 100-mg capsules BID) with nutritional supplement, after the second dose, n = 30): 4.03 days
- AUC(0-t) ([1]; Treatment 2C: 400 mg oral divided dose (2 × 100-mg capsules BID) with nutritional supplement, from time 0 (first dose) through 240 h, n = 30, read-out: AUC0–t, geometric mean (Geo. %CV)): 18900 ng·h/mL
- AUC(0-inf) ([1]; Treatment 2C: 400 mg oral divided dose (2 × 100-mg capsules BID) with nutritional supplement, from time 0 (first dose), n = 30, read-out: AUC0–∞, geometric mean (Geo. %CV)): 21300 ng·h/mL
- Patients who experienced nausea ([2]; FREEDOM study): 39.5%
- Patients who experienced nausea ([2]; JAKARTA trial): 62%
